The record followed here is ChEMBL document CHEMBL4376896, “Synthesis of Novel Potent Archazolids: Pharmacology of an Emerging Class of Anticancer Drugs” (J Med Chem, 2020).

The target in assay [1] is T1, Neutrophil elastase (Homo sapiens, UniProt P08246).
T1 sequence (P08246 whole entry): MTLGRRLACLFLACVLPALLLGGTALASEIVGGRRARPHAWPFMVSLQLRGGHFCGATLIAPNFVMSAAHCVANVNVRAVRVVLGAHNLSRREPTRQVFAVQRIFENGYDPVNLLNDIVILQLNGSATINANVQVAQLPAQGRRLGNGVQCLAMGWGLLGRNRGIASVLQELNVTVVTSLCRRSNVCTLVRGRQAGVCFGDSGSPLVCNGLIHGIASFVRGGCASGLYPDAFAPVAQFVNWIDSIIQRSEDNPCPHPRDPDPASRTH
Description: Inhibition of human leukocyte elastase assessed as reduction in pNA release using chromogenic MeO-Suc-Ala-Ala-Pro-Val-pNA substrate measured over 10 mins by spectrophotometry.

For assay [2], the target named is T2, P2X purinoceptor 3 (Homo sapiens, UniProt P56373).
T2 sequence (P56373 whole entry): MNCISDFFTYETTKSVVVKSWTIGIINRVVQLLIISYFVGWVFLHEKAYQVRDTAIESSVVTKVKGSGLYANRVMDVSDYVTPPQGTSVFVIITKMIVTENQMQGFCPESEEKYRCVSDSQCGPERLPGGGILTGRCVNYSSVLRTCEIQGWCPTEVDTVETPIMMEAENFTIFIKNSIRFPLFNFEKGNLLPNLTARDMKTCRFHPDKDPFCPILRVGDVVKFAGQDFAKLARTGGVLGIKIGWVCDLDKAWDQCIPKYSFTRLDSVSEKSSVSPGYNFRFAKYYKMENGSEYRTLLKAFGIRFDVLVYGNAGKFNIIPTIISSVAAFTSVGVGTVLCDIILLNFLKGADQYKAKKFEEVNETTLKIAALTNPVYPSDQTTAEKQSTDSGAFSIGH
In words: Inhibition of human P2X3 assessed as reduction in agonist-induced intracellular Ca2+ concentration pre-incubated for 30 mins before agonist addition by calcium 5 dye based fluorescence assay. The assay is classed as cell-based.

Assay [3] in a line: Inhibition of Manduca sexta V-type proton ATPase assessed as reduction in inorganic phosphate production pre-inucubated for 5 mins before Tris-ATP addition and measured after 2 mins.
Assay [4] in a line: cells. The following applies: Homo sapiens, 1321-N1, 72 h.
Description: Growth inhibition of human 1321N1 cells incubated for 72 hrs by MTT assay
The target of assay [5] is T3, Adenosine receptor A3 (Homo sapiens, UniProt P0DMS8).
T3 sequence (P0DMS8 whole entry): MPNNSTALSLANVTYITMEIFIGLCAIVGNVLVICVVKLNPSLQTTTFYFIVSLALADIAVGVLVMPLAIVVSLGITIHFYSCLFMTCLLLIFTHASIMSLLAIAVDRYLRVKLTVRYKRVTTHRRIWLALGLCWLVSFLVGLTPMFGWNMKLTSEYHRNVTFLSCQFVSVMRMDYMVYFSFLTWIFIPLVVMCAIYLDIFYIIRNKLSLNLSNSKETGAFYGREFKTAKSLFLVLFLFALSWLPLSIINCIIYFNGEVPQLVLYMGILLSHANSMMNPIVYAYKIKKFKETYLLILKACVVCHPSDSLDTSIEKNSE
In words: Displacement of [3H]PSB-11 from human A3 adenosine receptor expressed in CHO cell membranes incubated for 60 mins by liquid scintillation counting method. On the technique in general: In a radioligand displacement assay an active substance lowers the binding of a labelled ligand.

The structures appear in SMILES notation.

With `CNC(=O)O[C@@H](CC(C)C)c1nc([C@H]2OC(=O)[C@H](C)/C=C/C(C)=C/[C@@H](O)[C@@H](C)\C=C(C)/C=C(C)\C=C\[C@@H](O)[C@H](C)[C@H](OC)/C(C)=C/C=C/[C@@H]2C)cs1`, the IC50 – broadly, the concentration at which inhibition is half-maximal – in assay [1] (read-out: IC50) was 595 nM; in assay [2], above 2000 nM; in assay [3], 7.94 nM; in assay [4], 2.58 nM. Also, in assay [5], the Ki (in general, a measure of affinity in units of concentration, obtained from inhibition or displacement) is at least 10000 nM.
On to `CO[C@@H]1/C(C)=C/C=C/CCOC(=O)C/C=C/C(C)=C/[C@@H](O)[C@@H](C)\C=C(C)/C=C(C)\C=C\[C@@H](O)[C@@H]1C`, for which the IC50 in assay [1] (read-out: IC50) stood at 5850 nM. This compound also came in with a Ki in assay [5] of 609 nM.
As for `CNC(=O)O[C@@H](CC(C)C)c1nc([C@H]2OC(=O)C/C=C/C(C)=C/[C@@H](O)[C@@H](C)\C=C(C)/C=C(C)\C=C\[C@@H](O)[C@H](C)[C@H](O)/C(C)=C/C=C/[C@@H]2C)cs1`, the IC50 in assay [1] (read-out: IC50) is 1540 nM; in assay [2], above 10000 nM; in assay [3], 213 nM; in assay [4] it was 3050 nM. This compound also returned a Ki in assay [5] of 1380 nM.
Consider `CO/C1=C\C(C)=C\[C@@H](C)[C@@H](O)[C@@H](C)C/C(C)=C/C=C/[C@H](OC)[C@@H]([C@@H](C)[C@@H](O)[C@H](C)[C@@]2(O)C[C@@H](O)[C@H](C)[C@@H](C(C)C)O2)OC1=O` [BAFILOMYCIN A1], for which the IC50 entry in assay [1] is “Not Active”; in assay [2], 755 nM; in assay [3], 10 nM; in assay [4] it was 3.06 nM. In assay [5], this compound gave a Ki of 1080 nM.
As to `CNC(=O)O[C@@H](CC(C)C)c1nc([C@@H](O)[C@@H](C)/C=C/C=C(\C)[C@@H](OC)[C@@H](C)[C@H](O)/C=C/C(C)=C\C(C)=C/[C@H](C)[C@H](O)/C=C(C)/C=C/CC(=O)OC)cs1`, the IC50 in assay [1] (read-out: IC50) is 2340 nM; in assay [2], above 10000 nM; in assay [3], 352 nM; in assay [4] it was 296 nM. Also, in assay [5], the Ki is 1610 nM.
As for `CNC(=O)O[C@@H](CC(C)C)c1nc([C@H]2OC(=O)[C@@H](C)/C=C/C(C)=C/[C@@H](O)[C@@H](C)\C=C(C)/C=C(C)\C=C\[C@@H](O)[C@H](C)[C@H](OC)/C(C)=C/C=C/[C@@H]2C)cs1`, the IC50 in assay [1] (read-out: IC50) stood at 721 nM; in assay [2], 648 nM; in assay [3] it was 5.52 nM; in assay [4], 2.16 nM. In assay [5], this compound returned a Ki of 1140 nM.
